According to the supplement of paper PMC11451515:

System: SEM cells
Assay: cell viability relative to DMSO control; higher = less cytotoxic
Settings: 48 h
Outline: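 Before seeding, each leukemia line was adapted for at least four passages in each medium. NOMO1 or SEM cells (500 cells/well) and P12-Ichikawa cells (1000 cells/well) went into 1536-well plates at 5 μl, then received library compounds in DMSO by pin dosing across 11 threefold concentrations, 47 μM to 0.79 nM. Readout was CellTiter-Glo One luminescence after 48 h at 37°C, and viability is given as a per-plate percentage of DMSO wells, with cell-free wells as background.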

[1] = HPLM + 10% dialyzed FBS, 0.000781 µM
[2] = HPLM + 10% dialyzed FBS, 0.00234 µM
[3] = HPLM + 10% dialyzed FBS, 0.00702 µM
[4] = HPLM + 10% dialyzed FBS, 0.0211 µM
[5] = HPLM + 10% dialyzed FBS, 0.0632 µM
[6] = HPLM + 10% dialyzed FBS, 0.19 µM
[7] = HPLM + 10% dialyzed FBS, 0.569 µM
[8] = HPLM + 10% dialyzed FBS, 1.71 µM
[9] = HPLM + 10% dialyzed FBS, 5.12 µM
[10] = HPLM + 10% dialyzed FBS, 15.4 µM
[11] = HPLM + 10% dialyzed FBS, 46.1 µM
[12] = RPMI 5 mM glucose + 10% FBS, 0.000781 µM
[13] = RPMI 5 mM glucose + 10% FBS, 0.00234 µM
[14] = RPMI 5 mM glucose + 10% FBS, 0.00702 µM
[15] = RPMI 5 mM glucose + 10% FBS, 0.0211 µM
[16] = RPMI 5 mM glucose + 10% FBS, 0.0632 µM
[17] = RPMI 5 mM glucose + 10% FBS, 0.19 µM
[18] = RPMI 5 mM glucose + 10% FBS, 0.569 µM
[19] = RPMI 5 mM glucose + 10% FBS, 1.71 µM
[20] = RPMI 5 mM glucose + 10% FBS, 5.12 µM
[21] = RPMI 5 mM glucose + 10% FBS, 15.4 µM
[22] = RPMI 5 mM glucose + 10% FBS, 46.1 µM
[23] = RPMI 5 mM glucose + 10% dialyzed FBS, 0.000781 µM
[24] = RPMI 5 mM glucose + 10% dialyzed FBS, 0.00234 µM
[25] = RPMI 5 mM glucose + 10% dialyzed FBS, 0.00702 µM
[26] = RPMI 5 mM glucose + 10% dialyzed FBS, 0.0211 µM
[27] = RPMI 5 mM glucose + 10% dialyzed FBS, 0.0632 µM
[28] = RPMI 5 mM glucose + 10% dialyzed FBS, 0.19 µM
[29] = RPMI 5 mM glucose + 10% dialyzed FBS, 0.569 µM
[30] = RPMI 5 mM glucose + 10% dialyzed FBS, 1.71 µM
[31] = RPMI 5 mM glucose + 10% dialyzed FBS, 5.12 µM
[32] = RPMI 5 mM glucose + 10% dialyzed FBS, 15.4 µM
[33] = RPMI 5 mM glucose + 10% dialyzed FBS, 46.1 µM

Structure (SMILES) | cell viability [1] | cell viability [2] | cell viability [3] | cell viability [4] | cell viability [5] | cell viability [6] | cell viability [7] | cell viability [8] | cell viability [9] | cell viability [10] | cell viability [11] | cell viability [12] | cell viability [13] | cell viability [14] | cell viability [15] | cell viability [16] | cell viability [17] | cell viability [18] | cell viability [19] | cell viability [20] | cell viability [21] | cell viability [22] | cell viability [23] | cell viability [24] | cell viability [25] | cell viability [26] | cell viability [27] | cell viability [28] | cell viability [29] | cell viability [30] | cell viability [31] | cell viability [32] | cell viability [33]
CNC(=O)CN1CCC(Oc2cc3c(Nc4cccc(Cl)c4F)ncnc3cc2OC)CC1 | 104% | 110% | 110% | 135% | 112% | 122% | 128% | 130% | 121% | 129% | 104% | 117% | 128% | 116% | 118% | 120% | 130% | 130% | 124% | 125% | 122% | 84.9% | 114% | 113% | 120% | 141% | 138% | 152% | 140% | 149% | 125% | 138% | 88.8%
CCCC1OC2C[C@H]3[C@@H]4CCC5=CC(=O)C=C[C@]5(C)[C@H]4C(O)C[C@]3(C)[C@]2(C(=O)CO)O1 (some centres not stated) | 88.6% | 84.3% | 97.1% | 85.3% | 69% | 67% | 62.2% | 51% | 48% | 46.2% | 27.4% | 95.2% | 125% | 95.7% | 86.7% | 81.4% | 66% | 46.3% | 59.9% | 48.6% | 46.2% | 18.2% | 87.4% | 105% | 100% | 77.9% | 68.8% | 59.2% | 53.4% | 52.3% | 50.5% | 39.7% | 19.3%
CC(C)C[C@H](NC(=O)[C@@H](O)[C@H](N)Cc1ccccc1)C(=O)O | 86% | 122% | 121% | 131% | 136% | 119% | 114% | 128% | 120% | 114% | 10.7% | 59.2% | 122% | 127% | 123% | 133% | 115% | 118% | 121% | 109% | 117% | 8.04% | 62.3% | 119% | 136% | 135% | 129% | 123% | 127% | 132% | 131% | 116% | 13.2%
NC(=O)OCC(COC(N)=O)c1ccccc1 | 91% | 99.6% | 102% | 87.3% | 101% | 86.1% | 103% | 104% | 92.8% | 91% | 90.6% | 119% | 121% | 104% | 119% | 113% | 113% | 102% | 115% | 99.8% | 117% | 105% | 99.7% | 107% | 99.4% | 115% | 111% | 99.9% | 109% | 99% | 97.9% | 101% | 105%
